Data as given in patent publication US11963966B2, “Compositions and methods for treating ovarian tumors” (Dana-Farber Cancer Institute, Inc., priority 2017, dated 2024).

Experiments:
[1] = tested on: platinum-resistant ex vivo spheroid cultures of patients DF3266, DF3288, DF3291; test: Drug sensitivity testing with the growth in low attachment (GILA) assay; type: cell-based; settings: for Sensitivity of spheroid cultures: all spheroid cultures, similar dose range, cisplatin excepted in DF3266 and DF3288
Method: (§1) FIG. 6A-FIG. 6G are a series of graphs and images depicting the impact of JAK/STAT-inhibition on spheroid formation, invasion and killing ex vivo and in vitro. FIG. 6A a histogram (FIG. 11B), showing drug screening with 14 compounds (at 1 μM) inhibiting the JAK/STAT pathway in OVACR4. Relative viability compared to DMSO control measured by CTG. […] The same library was screened in 2D-cultures of OVACR4 (FIG. 11A), and 2D-cultures of OVACR8 (FIG. 11C) and 3D-cultures of OVACR8 (FIG. 11D). FIG. 6B is a series of plots showing drug sensitivity testing using the GILA assay in platinum-resistant ex vivo spheroid cultures of patients DF3291 and DF3266, The X-axis indicates the log μM concentration of drugs indicated in the legend, Y-axis indicates the percentage of luminescence signal as indicator for viability relatively to DMSO treated cells. In both patients, half maximal effective concentration (EC50) were ˜100 nM and ˜10 nM, respectively, while other drugs routinely used for the treatment of (platinum-resistant) ovarian cancer had EC50>10 μM. FIG. 6C is a series of images of microscopic analysis of spheroids with different drug treatments to highlight the morphologic changes during therapy with drugs listed. Inhibition of JAK/STAT pathway disrupts ex vivo spheroid cultures. […] The X-axis indicates established ovarian cancer cell line ID. Y-axis indicates the relative number of formed spheroids when treated with either JSI-124 or carboplatin compared to untreated parental controls. Error bars indicate the standard deviation from the mean number of spheroids. […] JAK/STAT inhibition prevents spheroid formation. […] The Y-axis indicates the clearance ability (using arbitrary units). 20 spheroids clusters were analyzed for each iteration. Data is shown as mean (horizontal bar), interquartile range (box), and minimum and maximum (whiskers). Statistical analysis was performed using 1-way analysis of variance (ANOVA) and post hoc Tukey-Kramer **P<0.05. […] FIG. 6G is a histogram showing the inhibition of the JAK/STAT pathway.
Single-cell RNA-sequencing was performed on these platinum-resistant patient samples, using the growth in low attachment (GILA) assay (Rotem et al., 2015 Proc. Natl. Acad. Sci. U.S.A, 112:5708-5713; B. Izar and A. Rotem, 2016 Curr. Protoc. Mol. Biol., 116:28.8.1-28.8.12). […] In contrast, all spheroid cultures were resistant to carboplatin, cisplatin, olaparib and paclitaxel at a similar dose range, with the exception of cisplatin with an EC50 of ˜10 μM in patients DF3266 and DF3288.

[2] = tested on: established ovarian cancer cell lines (OVCAR4, OVCAR8, OVASHO, TYKNU, Kuramachi); test: Spheroid formation in low adherent surface culture; type: cell-based; settings: same treatment doses as JSI-124
Method: as §1, with “pathway. […]” for “pathway.”

[3] = tested on: PDX models DF20, DF68, DF101; test: Carboplatin treatment of ovarian cancer PDX models, tumor volume and BLI; type: in vivo, mice; settings: followed by subsequent tumor outgrowth
Method: FIG. 4A-FIG. 4E are a series of graphs depicting comparisons of expression profiles across patient-derived xenograft (PDX) models before and after recurrence. […] FIG. 4A is a plot of tumor burden of PDX model DF20. PDX model DF20 response to carboplatin was assessed. Triangles indicate vehicle mice, squares indicate relapsed mice, and asterisks indicates MRD animals. MRD and relapsed tumors were treated with three cycles of carboplatin and harvested for single-cell RNA-sequencing at the last indicated time point in this graph. FIG. 4B is a heatmap showing the similarities and clustering of average expression profiles for each of the samples corresponding to three PDX models, with samples collected before treatments (vehicle), MRD and full relapse for each of the models. FIG. 4C is a plot of expression of highly-abundant transcripts in single-cells indicate disproportionally high expression of key nodes of the JAK/STAT pathway, including STAT2 and STAT3, and others.
Next, platinum-resistance was modeled using PDX-models. […] Single-cells were harvested for sequencing from untreated animals (vehicle) and the carboplatin-treated animals were monitored for tumor regression and relapse. […] Accordingly, gene sets were detected which were consistently altered across two or three samples of MRD (FIG. 4D) or relapse (FIG. 4E), and contribute to drug resistance or tumor relapse. […]

SMILES	Sensitivity of spheroid cultures [1]	Effect on spheroids formation [2]	Tumor response (tumor volume, BLI signal) [3]	EC50 ([1]; patients DF3266 and DF3288, read-out: EC50)
N.N.O=C([O-])C1(C(=O)[O-])CCC1.[Pt+2] [carboplatin]	resistant	modest to no effects	brisk response	–
N.N.[Cl][Pt][Cl] [cisplatin]	resistant	–	–	~10 µM
O=C(c1cc(Cc2n[nH]c(=O)c3ccccc23)ccc1F)N1CCN(C(=O)C2CC2)CC1 [olaparib]	resistant	–	–	–
CC(=O)O[C@H]1C(=O)[C@@]2(C)[C@H]([C@H](OC(=O)c3ccccc3)[C@]3(O)C[C@H](OC(=O)[C@H](O)[C@@H](NC(=O)c4ccccc4)c4ccccc4)C(C)=C1C3(C)C)[C@]1(OC(C)=O)CO[C@@H]1C[C@@H]2O [paclitaxel]	resistant	–	–	–
